Data: EP4467141A1, “PYRAZOLO-QUINOLINES AS SELECTIVE INHIBITORS OF GENOTOXIC STRESS-INDUCED IKK/NF- KB PATHWAYS FOR CANCER THERAPY” (Max-Delbrück-Centrum für Molekulare Medizin in der …, priority 2023, dated 2024)

Experiments:
Assay in all cases: Kinase panel study
Assay type in all cases: biochemical
Settings in all cases: read-out: Percentage of inhibition; for inhibition at 1 µM: 1000nM; for inhibition at 10 µM: 10000nM
ABL1 Y253F = biological target: T1, ABL1 Y253F (Homo sapiens, UniProt P00519, Y253F)
T1 construct: purchased Thermo Fisher Scientific
Procedure, shortened: (§1)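 Single-point inhibition data at 10 µM or 1 µM compound are shown. They were generated in ZLyte- or Adapta-format biochemical assays performed externally under standard conditions.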

IGF1R = biological target: T2, IGF1R (Homo sapiens, UniProt P08069)
T2 construct: purchased Thermo Fisher Scientific
T2 sequence (P08069 31-1367): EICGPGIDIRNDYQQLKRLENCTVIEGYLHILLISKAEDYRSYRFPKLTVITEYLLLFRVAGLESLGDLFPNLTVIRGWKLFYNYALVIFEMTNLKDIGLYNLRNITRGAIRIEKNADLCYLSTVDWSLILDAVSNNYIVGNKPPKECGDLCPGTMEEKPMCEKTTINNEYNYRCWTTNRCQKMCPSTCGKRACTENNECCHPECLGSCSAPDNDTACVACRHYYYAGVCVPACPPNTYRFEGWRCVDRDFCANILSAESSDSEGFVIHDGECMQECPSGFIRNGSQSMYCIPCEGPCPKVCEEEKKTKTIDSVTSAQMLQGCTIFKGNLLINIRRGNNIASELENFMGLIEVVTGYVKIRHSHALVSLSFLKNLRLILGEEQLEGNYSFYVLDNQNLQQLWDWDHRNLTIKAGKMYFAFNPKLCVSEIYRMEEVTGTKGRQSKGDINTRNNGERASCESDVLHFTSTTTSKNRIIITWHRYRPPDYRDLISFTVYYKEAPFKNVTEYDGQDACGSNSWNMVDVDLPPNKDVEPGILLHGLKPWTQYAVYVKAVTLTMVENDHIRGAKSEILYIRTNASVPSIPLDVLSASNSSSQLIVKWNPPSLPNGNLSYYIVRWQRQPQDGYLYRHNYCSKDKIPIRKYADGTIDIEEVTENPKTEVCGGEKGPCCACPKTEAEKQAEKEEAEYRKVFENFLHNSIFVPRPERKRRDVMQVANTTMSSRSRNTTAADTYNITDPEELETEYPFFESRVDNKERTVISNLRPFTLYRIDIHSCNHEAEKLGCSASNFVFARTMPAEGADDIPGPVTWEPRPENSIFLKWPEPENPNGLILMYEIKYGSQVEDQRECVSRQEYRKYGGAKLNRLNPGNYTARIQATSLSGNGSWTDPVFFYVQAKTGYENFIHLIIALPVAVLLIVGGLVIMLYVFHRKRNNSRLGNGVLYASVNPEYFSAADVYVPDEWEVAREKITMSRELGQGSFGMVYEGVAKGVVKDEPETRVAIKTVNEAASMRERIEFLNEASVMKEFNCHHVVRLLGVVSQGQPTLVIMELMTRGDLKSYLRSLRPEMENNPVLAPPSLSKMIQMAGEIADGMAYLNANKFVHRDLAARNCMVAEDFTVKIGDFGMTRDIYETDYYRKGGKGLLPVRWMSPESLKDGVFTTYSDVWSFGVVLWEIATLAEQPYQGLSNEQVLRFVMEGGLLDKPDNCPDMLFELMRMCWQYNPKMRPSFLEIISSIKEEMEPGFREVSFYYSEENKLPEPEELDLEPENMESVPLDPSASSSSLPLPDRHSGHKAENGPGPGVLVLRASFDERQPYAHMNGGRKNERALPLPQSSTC
Procedure, shortened: as §1

LRRK2 G2019S FL = biological target: T3, LRRK2 G2019S FL (Homo sapiens, UniProt Q5S007, G2019S)
T3 construct: LRRK2 G2019S FL; purchased Thermo Fisher Scientific
Procedure, shortened: as §1

LRRK2 R1441C = biological target: T4, LRRK2 R1441C (Homo sapiens, UniProt Q5S007, R1441C)
T4 construct: purchased Thermo Fisher Scientific
T4 sequence (Q5S007 970-2527 R1441C limits assumed): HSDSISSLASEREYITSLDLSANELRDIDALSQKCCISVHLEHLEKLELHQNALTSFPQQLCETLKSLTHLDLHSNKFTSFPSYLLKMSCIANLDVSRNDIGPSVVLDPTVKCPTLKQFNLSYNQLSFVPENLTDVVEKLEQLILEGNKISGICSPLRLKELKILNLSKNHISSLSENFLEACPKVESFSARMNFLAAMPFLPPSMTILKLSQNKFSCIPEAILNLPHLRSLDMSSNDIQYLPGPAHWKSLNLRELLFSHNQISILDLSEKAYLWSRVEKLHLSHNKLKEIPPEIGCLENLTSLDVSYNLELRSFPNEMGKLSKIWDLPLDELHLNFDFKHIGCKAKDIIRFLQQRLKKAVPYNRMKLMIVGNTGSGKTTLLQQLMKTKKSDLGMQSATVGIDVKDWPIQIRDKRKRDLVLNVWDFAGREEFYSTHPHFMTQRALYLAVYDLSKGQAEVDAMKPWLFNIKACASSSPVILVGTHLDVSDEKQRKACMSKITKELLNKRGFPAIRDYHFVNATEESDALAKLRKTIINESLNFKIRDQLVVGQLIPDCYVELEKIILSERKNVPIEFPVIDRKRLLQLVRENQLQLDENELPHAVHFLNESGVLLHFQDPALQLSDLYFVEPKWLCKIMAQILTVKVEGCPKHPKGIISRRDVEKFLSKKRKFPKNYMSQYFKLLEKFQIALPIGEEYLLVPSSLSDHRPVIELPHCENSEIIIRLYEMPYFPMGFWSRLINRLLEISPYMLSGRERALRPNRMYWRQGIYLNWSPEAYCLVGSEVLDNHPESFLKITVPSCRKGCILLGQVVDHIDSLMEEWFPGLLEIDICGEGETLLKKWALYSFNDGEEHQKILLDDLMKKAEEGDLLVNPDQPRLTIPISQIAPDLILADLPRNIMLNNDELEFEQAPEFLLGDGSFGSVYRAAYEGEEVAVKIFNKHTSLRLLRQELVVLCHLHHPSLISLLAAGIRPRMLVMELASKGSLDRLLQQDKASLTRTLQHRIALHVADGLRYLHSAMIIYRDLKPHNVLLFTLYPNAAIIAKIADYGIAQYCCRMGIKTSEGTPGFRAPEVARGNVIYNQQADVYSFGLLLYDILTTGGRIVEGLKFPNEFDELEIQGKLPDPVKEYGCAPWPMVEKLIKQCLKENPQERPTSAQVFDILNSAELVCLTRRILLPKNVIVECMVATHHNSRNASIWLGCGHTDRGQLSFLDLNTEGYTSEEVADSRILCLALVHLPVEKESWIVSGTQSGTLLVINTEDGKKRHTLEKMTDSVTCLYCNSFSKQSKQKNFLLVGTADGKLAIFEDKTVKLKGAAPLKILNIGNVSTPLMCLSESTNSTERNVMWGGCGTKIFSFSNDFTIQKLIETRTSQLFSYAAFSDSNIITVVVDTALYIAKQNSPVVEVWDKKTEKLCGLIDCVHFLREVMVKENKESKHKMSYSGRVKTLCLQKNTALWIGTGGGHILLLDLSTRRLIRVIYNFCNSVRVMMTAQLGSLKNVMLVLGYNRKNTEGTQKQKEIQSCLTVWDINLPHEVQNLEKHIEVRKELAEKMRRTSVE
Procedure, shortened: as §1

PLK3 = biological target: T5, PLK3 (Homo sapiens, UniProt Q9H4B4)
T5 construct: purchased Thermo Fisher Scientific
T5 sequence (Q9H4B4 whole entry): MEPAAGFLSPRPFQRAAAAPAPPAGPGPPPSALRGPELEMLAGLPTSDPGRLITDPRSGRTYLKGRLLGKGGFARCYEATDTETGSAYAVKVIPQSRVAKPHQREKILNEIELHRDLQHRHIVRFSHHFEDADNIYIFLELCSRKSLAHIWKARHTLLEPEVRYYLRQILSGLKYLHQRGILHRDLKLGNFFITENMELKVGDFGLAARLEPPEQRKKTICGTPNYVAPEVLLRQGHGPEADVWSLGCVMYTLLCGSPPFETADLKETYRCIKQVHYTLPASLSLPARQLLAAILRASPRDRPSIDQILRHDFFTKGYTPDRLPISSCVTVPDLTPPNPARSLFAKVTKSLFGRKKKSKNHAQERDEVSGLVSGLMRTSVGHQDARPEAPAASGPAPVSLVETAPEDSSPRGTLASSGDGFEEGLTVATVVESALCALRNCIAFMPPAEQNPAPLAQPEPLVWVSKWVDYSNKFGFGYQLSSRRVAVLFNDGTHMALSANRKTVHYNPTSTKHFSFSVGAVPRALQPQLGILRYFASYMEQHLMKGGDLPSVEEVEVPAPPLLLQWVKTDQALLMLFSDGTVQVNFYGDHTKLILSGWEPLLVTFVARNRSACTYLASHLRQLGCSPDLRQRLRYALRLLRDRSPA
Procedure, shortened: as §1

CDC42 BPA (MRCKA) = biological target: T6, CDC42 BPA (MRCKA) (Homo sapiens, UniProt Q5VT25)
T6 construct: purchased Thermo Fisher Scientific
Procedure, shortened: as §1

RPS6KA1 (RSK1) = biological target: T7, RPS6KA1 (RSK1) (Homo sapiens, UniProt Q15418)
T7 construct: purchased Thermo Fisher Scientific
T7 sequence (Q15418 whole entry): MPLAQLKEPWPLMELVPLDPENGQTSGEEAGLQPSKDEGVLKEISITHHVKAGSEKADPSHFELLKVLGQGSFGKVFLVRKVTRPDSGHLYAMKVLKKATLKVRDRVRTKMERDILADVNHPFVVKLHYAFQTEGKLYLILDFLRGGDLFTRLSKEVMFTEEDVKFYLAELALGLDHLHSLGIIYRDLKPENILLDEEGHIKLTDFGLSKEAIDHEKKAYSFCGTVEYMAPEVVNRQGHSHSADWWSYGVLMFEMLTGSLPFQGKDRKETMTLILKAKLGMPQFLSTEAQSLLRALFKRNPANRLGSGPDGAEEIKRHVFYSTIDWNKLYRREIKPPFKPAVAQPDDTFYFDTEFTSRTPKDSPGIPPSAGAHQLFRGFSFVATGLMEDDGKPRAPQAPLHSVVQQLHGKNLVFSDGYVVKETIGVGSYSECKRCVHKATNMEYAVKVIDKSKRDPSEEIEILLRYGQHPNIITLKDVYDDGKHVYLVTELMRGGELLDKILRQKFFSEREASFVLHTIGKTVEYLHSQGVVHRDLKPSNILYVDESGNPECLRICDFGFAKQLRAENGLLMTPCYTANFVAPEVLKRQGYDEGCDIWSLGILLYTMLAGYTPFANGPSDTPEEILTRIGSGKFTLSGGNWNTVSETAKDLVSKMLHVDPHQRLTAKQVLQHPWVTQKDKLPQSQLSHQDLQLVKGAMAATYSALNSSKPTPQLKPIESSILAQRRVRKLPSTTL
Procedure, shortened: as §1

MERTK (cMER) = biological target: T8, MERTK (cMER) (Homo sapiens, UniProt Q12866)
T8 construct: purchased Thermo Fisher Scientific
T8 sequence (Q12866 21-999): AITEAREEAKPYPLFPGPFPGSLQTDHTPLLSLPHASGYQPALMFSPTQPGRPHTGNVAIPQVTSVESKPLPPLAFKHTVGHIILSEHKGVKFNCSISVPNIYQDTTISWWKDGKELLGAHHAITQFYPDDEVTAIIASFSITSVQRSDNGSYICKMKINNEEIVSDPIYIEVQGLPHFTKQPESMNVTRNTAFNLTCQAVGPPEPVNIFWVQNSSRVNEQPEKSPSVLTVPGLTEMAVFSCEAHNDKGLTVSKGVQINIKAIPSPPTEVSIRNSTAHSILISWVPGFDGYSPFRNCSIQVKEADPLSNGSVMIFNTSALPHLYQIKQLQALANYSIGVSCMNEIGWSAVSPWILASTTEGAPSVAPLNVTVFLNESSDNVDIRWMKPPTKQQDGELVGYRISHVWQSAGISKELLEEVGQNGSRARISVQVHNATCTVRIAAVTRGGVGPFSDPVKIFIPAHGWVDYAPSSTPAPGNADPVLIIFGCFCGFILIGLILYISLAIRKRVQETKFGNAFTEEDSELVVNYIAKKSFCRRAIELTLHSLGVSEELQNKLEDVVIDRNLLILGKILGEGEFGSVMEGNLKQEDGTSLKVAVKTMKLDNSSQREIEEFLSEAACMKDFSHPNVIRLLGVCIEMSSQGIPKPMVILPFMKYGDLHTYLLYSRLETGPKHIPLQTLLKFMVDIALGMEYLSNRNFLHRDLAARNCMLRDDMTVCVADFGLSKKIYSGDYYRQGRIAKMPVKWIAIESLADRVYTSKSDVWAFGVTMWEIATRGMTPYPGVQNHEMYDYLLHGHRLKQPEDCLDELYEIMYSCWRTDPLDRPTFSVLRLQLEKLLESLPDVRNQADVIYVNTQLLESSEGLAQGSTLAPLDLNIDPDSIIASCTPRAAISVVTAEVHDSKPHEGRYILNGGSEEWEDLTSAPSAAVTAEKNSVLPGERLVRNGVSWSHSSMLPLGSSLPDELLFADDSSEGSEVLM
Procedure, shortened: as §1

PIM2 = biological target: T9, PIM2 (Homo sapiens, UniProt Q9P1W9)
T9 construct: purchased Thermo Fisher Scientific
T9 sequence (Q9P1W9 whole entry): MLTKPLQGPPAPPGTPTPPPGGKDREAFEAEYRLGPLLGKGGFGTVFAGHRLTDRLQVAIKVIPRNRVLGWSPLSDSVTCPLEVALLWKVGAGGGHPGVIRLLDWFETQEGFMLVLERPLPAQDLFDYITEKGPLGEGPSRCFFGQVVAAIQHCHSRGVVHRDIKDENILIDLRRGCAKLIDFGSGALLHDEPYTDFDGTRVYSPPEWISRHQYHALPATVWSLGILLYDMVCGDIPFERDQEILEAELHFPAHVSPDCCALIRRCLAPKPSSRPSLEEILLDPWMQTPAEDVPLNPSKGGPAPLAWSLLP
Procedure, shortened: as §1

CAMK1 (CaMK1) = biological target: T10, CAMK1 (CaMK1) (Homo sapiens, UniProt Q14012)
T10 construct: purchased Thermo Fisher Scientific
Procedure, shortened: as §1

Which inhibition at 1 µM (ABL1 Y253F) does the source give for `COc1ccc2c(c1OC)c(=O)n1c3ccc(O)cc3c3ccnc2c31` [MW01, 5-Hydroxy-10,11-dimethoxy-9H-benzo[c]indolo[3,2,1-ij][1,5]naphthyridin-9-one] here?
The inhibition at 1 µM was 9%.

And the inhibition at 10 µM (ABL1 Y253F)?
Its inhibition at 10 µM is 30%.

And the inhibition at 1 µM (IGF1R)?
The inhibition at 1 µM was 11%.

And the inhibition at 10 µM (IGF1R)?
The inhibition at 10 µM was 31%.

And the inhibition at 1 µM (LRRK2 G2019S FL)?
Its inhibition at 1 µM is 87%.

And the inhibition at 10 µM (LRRK2 G2019S FL)?
Its inhibition at 10 µM is 90%.

And the inhibition at 1 µM (LRRK2 R1441C)?
The inhibition at 1 µM was 83%.

What about the inhibition at 10 µM (LRRK2 R1441C) of the same compound?
Its inhibition at 10 µM is 86%.

And the inhibition at 1 µM (PLK3)?
The inhibition at 1 µM was 6%.

And the inhibition at 10 µM (PLK3)?
The inhibition at 10 µM was 23%.

And the inhibition at 1 µM (CDC42 BPA (MRCKA))?
The inhibition at 1 µM was 11%.

And the inhibition at 10 µM (CDC42 BPA (MRCKA))?
The inhibition at 10 µM was 15%.

And the inhibition at 1 µM (RPS6KA1 (RSK1))?
The inhibition at 1 µM was 12%.

And the inhibition at 10 µM (RPS6KA1 (RSK1))?
The inhibition at 10 µM was 19%.

What about the inhibition at 1 µM (MERTK (cMER)) of the same compound?
Its inhibition at 1 µM is 54%.

What about the inhibition at 10 µM (MERTK (cMER)) of the same compound?
The inhibition at 10 µM was 86%.

What about the inhibition at 1 µM (PIM2) of the same compound?
Its inhibition at 1 µM is 6%.

What about the inhibition at 10 µM (PIM2) of the same compound?
Its inhibition at 10 µM is 13%.

And the inhibition at 1 µM (CAMK1 (CaMK1))?
The inhibition at 1 µM was -12%.

What about the inhibition at 10 µM (CAMK1 (CaMK1)) of the same compound?
The inhibition at 10 µM was -2%.

How did the inhibition at 1 µM (ABL1 Y253F) turn out when `COc1ccc2cc3c(N)nn(C(=O)c4cccc(N(C)C)c4)c3nc2c1` [MW05, (3-Amino-7-methoxypyrazolo[3,4-b]quinolin-1-yl)-[3-(dimethylamino)phenyl]methanone] was run?
The inhibition at 1 µM was -2%.

What about the inhibition at 10 µM (ABL1 Y253F) of the same compound?
The inhibition at 10 µM was 7%.

What about the inhibition at 1 µM (IGF1R) of the same compound?
Its inhibition at 1 µM is -1%.

And the inhibition at 10 µM (IGF1R)?
The inhibition at 10 µM was -12%.

What about the inhibition at 1 µM (LRRK2 G2019S FL) of the same compound?
The inhibition at 1 µM was -1%.

And the inhibition at 10 µM (LRRK2 G2019S FL)?
The inhibition at 10 µM was 11%.

And the inhibition at 1 µM (LRRK2 R1441C)?
Its inhibition at 1 µM is -2%.

What about the inhibition at 10 µM (LRRK2 R1441C) of the same compound?
The inhibition at 10 µM was 3%.

What about the inhibition at 1 µM (PLK3) of the same compound?
The inhibition at 1 µM was 5%.

And the inhibition at 10 µM (PLK3)?
Its inhibition at 10 µM is 12%.

And the inhibition at 1 µM (CDC42 BPA (MRCKA))?
Its inhibition at 1 µM is 9%.

What about the inhibition at 10 µM (CDC42 BPA (MRCKA)) of the same compound?
Its inhibition at 10 µM is 2%.

And the inhibition at 1 µM (RPS6KA1 (RSK1))?
The inhibition at 1 µM was 10%.

And the inhibition at 10 µM (RPS6KA1 (RSK1))?
Its inhibition at 10 µM is 3%.

And the inhibition at 1 µM (MERTK (cMER))?
The inhibition at 1 µM was 4%.

And the inhibition at 10 µM (MERTK (cMER))?
Its inhibition at 10 µM is 11%.

And the inhibition at 1 µM (PIM2)?
Its inhibition at 1 µM is -1%.

What about the inhibition at 10 µM (PIM2) of the same compound?
The inhibition at 10 µM was -3%.

What about the inhibition at 1 µM (CAMK1 (CaMK1)) of the same compound?
The inhibition at 1 µM was -11%.

And the inhibition at 10 µM (CAMK1 (CaMK1))?
Its inhibition at 10 µM is -5%.
